The values below come from paper PMC6212398, “Competing protein-protein interactions regulate binding of Hsp27 to its client protein tau” (Nature Communications, 2018).

Series [1] addresses T1, ΔNTD GPG (Homo sapiens, UniProt P04792, I181G/V183G).
T1 construct: For all other Hsp27 constructs (GPG, ΔNTD consisting of residues 80–205); inferred from the PMCSG7 vector and Ni-NTA purification) (N); made in house; host or cells: E. coli BL21 (DE3)
Briefly: ITC of optimized IPV peptide with Hsp27 ΔNTD GPG. The series is classed as binding. The following applies: Fig. 4b, peptide (1 mM) into ΔNTD GPG (100 µM), 25 °C, mean ± SEM, minimum of three independent experiments. Here is the method: (§1) For experiments with BAG3, proteins were dialyzed overnight against ITC buffer (25 mM Hepes, 5 mM MgCl2, 100 mM KCl, pH 7.5). For experiments with peptides, sHSPs were dialyzed overnight against SEC buffer, and peptides were dissolved in dialysis buffer. Concentrations were determined using BCA assays (Thermo Scientific), and the ITC experiment was performed with a MicroCal ITC200 (GE Healthcare) at 25 °C. In BAG3 experiments, sHSP (200 µM) in the syringe was titrated into a 10 μM cell solution of BAG3 protein. For peptide binding experiments, peptide (1 mM) was titrated into a cell containing Hsp27 proteins (100 µM). Calorimetric parameters were calculated using Origin® 7.0 software and fit with a one-site binding model.

In series [2] the target is T2, Hsp27 WT (Homo sapiens, UniProt P04792).
T2 construct: Vectors for the expression of full-length human Hsp27; made in house; host or cells: E. coli BL21 (DE3)
T2 sequence (P04792 whole entry): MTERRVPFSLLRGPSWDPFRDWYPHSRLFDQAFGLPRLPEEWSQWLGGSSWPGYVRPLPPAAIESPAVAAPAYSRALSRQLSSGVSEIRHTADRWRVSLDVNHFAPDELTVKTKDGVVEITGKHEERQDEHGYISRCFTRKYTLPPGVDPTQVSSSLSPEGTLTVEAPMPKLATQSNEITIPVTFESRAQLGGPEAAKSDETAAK
Briefly: ITC of optimized IPV peptide with Hsp27 WT. It is filed as binding. The following applies: Fig. 4b, peptide (1 mM) into full-length Hsp27 WT (100 µM), 25 °C, mean ± SEM, minimum of three independent experiments. On the procedure: as §1

Series [3] has as its target T3, Hsp27 3D (Homo sapiens, UniProt P04792, S15D/S78D/S82D).
T3 construct: Sample aggregation curves of tau constructs with full-length Hsp27; made in house; host or cells: E. coli BL21 (DE3)
Briefly: ITC of optimized IPV peptide with Hsp27 3D. The following applies: Fig. 4b, peptide (1 mM) into Hsp27 3D (100 µM), 25 °C, mean ± SEM, minimum of three independent experiments. The series is classed as binding. On the procedure: as §1

Series [4] concerns the target T4, Hsp27 ACD (Homo sapiens, UniProt P04792).
T4 construct: Hsp27 ACD (residues Q80–S176); made in house; host or cells: E. coli BL21 (DE3)
Briefly: NMR titration of VQIVYK peptide into 1H-15N Hsp27 ACD. It is filed as binding. The following applies: 1H-15N ACD spectra, 3.3-fold molar excess of peptide (500 µM), Supplementary Figure 3D.

Series [5] deals with K18 tau. Briefly: Competitive ELISA on immobilized K18 tau saturated with biotin-labelled Hsc70. Details: species or system human. The following applies: Supplementary Figure 3A, binding not saturable, read-out: IC50 (estimated), competition with biotin-labelled Hsc70 for immobilized K18 tau. The source says: B. Hsp27 ACD binding to K18tau cannot be measured by ITC
A. Hsp27 ACD has a weak affinity for tau,by ELISA
C. The interaction is also estimated tobe weak by NMR titration[Competitor], uM
D. NMR titration of VQIVYK peptide into
Supplementary Figure 3. Hsp27 ACD has a weak affinity for K18 tau. (A) K18 tau was immobilized onto ELISA plates and saturated with biotin-labelled, human Hsc70, which shares binding sites with Hsp27 ACD in the MTBRs. Competition with unlabelled Hsc70 (control) or Hsp27 ACD was then carried out. Hsp27 ACD was estimated to have an IC50 > 100 µM. (B) Binding of Hsp27 ACD to K18 tau was not able to be measured by ITC, due to solubility limits. (C) NMR titrations (see Figure S5A) also […]
interaction. CSPs of Hsp27 ACD in the presence of 3.3-fold molar excess of PHF6* peptide (500 µM).
(also on this page, place not known: [Competitor], OD450 tau, K18 tau to be by 4 normalized CSP [((δN/5) +γH ); ppm] 2 0.52 CSP (PPM) titration Hsp27) […]

Series [6] has as its system 0N4R tau. Briefly: Tau aggregation assay (thioflavin T fluorescence), 0N4R. It is filed as biochemical, human. As to conditions: 10 μM tau, chaperone 1:1 molar ratio (10 μM), heparin 44 µg/mL, 37 °C, Dulbecco's PBS pH 7.4. On the procedure:
(§2) Aggregation assays were performed as previously described. Briefly, all proteins were dialyzed overnight at 4 °C into assay buffer (Dulbecco’s PBS pH7.4, 2 mM MgCl2, 1 mM DTT). 0N4R or K18 Tau (10 μM) was pre-incubated in the presence/absence of chaperones (5–20 μM) for 30 min at 37 °C. Thioflavin T (Sigma) at a final concentration of 10 μM was added and aggregation was induced by the addition of a freshly prepared heparin sodium salt solution (Santa Cruz) at a final concentration of 44 µg/mL. For non-induced controls, assay buffer was added in place of heparin solution. The aggregation reaction was carried out at 37 °C with continuous shaking and monitored via Thioflavin T fluorescence (excitation = 444 nm, emission = 485 nm, cutoff = 480 nm) in a Spectramax M5 microplate reader (Molecular Devices). Readings were taken every 5 min for a minimum of 24 h. Baseline curves of non-induced controls (three replicates) were subtracted from induced samples (three replicates).

Series [7] deals with K18 tau. Briefly: Tau aggregation assay (thioflavin T fluorescence), K18. The following applies: 10 μM tau, chaperone 1:1 molar ratio (10 μM), heparin 44 µg/mL, 37 °C, Dulbecco's PBS pH 7.4. The series is classed as biochemical, human. On the procedure: as §2
For series [8], the system named is K18 tau. Briefly: 15N K18 HSQC / TROSY-HSQC NMR with unlabeled Hsp27 constructs. The series is classed as binding, human. As to conditions: 50 µM 15N K18, 100 µM Hsp27 construct (2:1), 10 °C, TROSY titration. On the procedure:
For ^15N K18 HSQC NMR experiments, all proteins were dialyzed overnight into NMR buffer (25 mM HEPES pH 7.4, 10 mM KCl, 5 mM MgCl2, 1 mM TCEP, 10% (v/v) D2O). Then, samples containing 50 μM ^15N-labeled tau and 50 or 100 μM unlabeled chaperone in NMR buffer were prepared. 2D HSQC spectra were acquired at 10 °C on a Bruker Avance AV800 spectrometer equipped with a cryoprobe. 16 scans were acquired per t1 value and spectral widths of 2100 Hz and 10,416 Hz were used in the ^1H and ^15N dimensions, respectively. Spectra were processed using rNMR and Sparky based on deposited tau assignments (Barre 2013, BioMagResBank accession number 19253). Signal intensity ratios were calculated using Prism, by dividing the intensity of chaperone-bound peaks by intensity of the same peak in the unbound spectra.
The ^15N TROSY HSQC experiments were performed on a Bruker Avance 800 MHz spectrometer equipped with the TXO cryogenic probe at 283 K. The [U-^15N] K18 proteins were dissolved at a concentration of 0.05–0.15 mM in 25 mM Hepes, 10 mM KCl, 5 mM MgCl2, 1 mM TCEP at pH 7.0 and titrated with the Hsp27 proteins in the same buffer. The ^1H–^15N TROSY HSQC experiments were performed with 2048 direct (^1H) and 512 indirect (^15N) points with the spectral width of 16 ppm and 36 ppm, respectively. All NMR spectra were processed by Topspin 3.1, and analyzed with Sparky (Goddard and Kneller, SPARKY 3-NMR Assignment and Integration Software. University of California, San Francisco, CA).

Series [9] in a line: Thermal shift assay (differential scanning fluorimetry). The series is classed as physicochemical. The following applies: DSF, 0.3 mg/mL in 50 mM NaPi pH 7.4, 700 mM NaCl, 50 mM LiCl, SYPRO Orange. On the procedure:
Samples of Hsp27 (25 µL; 0.3 mg/mL) in DSF buffer (50 mM NaPi pH 7.4, 700 mM NaCl, 50 mM LiCl) with a 5× final concentration of SYPRO Orange (Sigma) were placed into a white 96-well plate with optically clear caps. Melt curves were acquired on a Stratagene Mx300P RT-PCR using the SYPRO filter set. Samples were heated from 25 to 95 °C in 1 °C increments for 2 min, cooled to 25 °C at each cycle, and fluorescence was measured. The melting temperature was determined using a Boltzmann fit in Prism.
(DSF heats the sample and reads unfolding from a dye or from intrinsic fluorescence.)

The target in series [10] is T4, Hsp27 ACD. Briefly: ITC of IPV-derived peptides with purified Hsp27 ACD. The series is classed as binding. The following applies: Fig. 1d, 25 °C, one-site model; for N (binding stoichiometry): peptide (1 mM) into Hsp27 ACD (100 µM). On the procedure:
as §1

The test system of series [11] is BAG3. Briefly: Interaction of Hsp27 ACD with BAG3 by FCPIA. The following applies: Supplementary Figure 4. The series is classed as binding.
[12] abbreviates: Fig. 4a, Boltzmann fit, mean ± SD of three independent experiments.

Entries after “also recorded” stand apart in the source; their conditions may differ. Ends that are not written are not given here.

T4 sequence (P04792 80-176): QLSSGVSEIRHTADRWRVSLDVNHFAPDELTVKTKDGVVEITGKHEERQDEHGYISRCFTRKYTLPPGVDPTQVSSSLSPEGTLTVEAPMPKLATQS
T3 sequence (P04792 whole entry S15D/S78D/S82D): as the sequence (P04792 whole entry) above, with S15D, S78D, S82D counted along it
T1 sequence (P04792 80-205 I181G/V183G limits assumed): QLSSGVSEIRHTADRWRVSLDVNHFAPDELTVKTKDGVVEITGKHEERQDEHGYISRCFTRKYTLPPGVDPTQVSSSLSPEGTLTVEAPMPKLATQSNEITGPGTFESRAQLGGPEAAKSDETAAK

In the case of EITIPVTHE [Hsp27 IPV H], the Kd in [1] was 14.3 µM; in series [2], “does not bind”; in series [3], more than 50 µM.

With “VQIVYK [PHF6* peptide, 6-mer PHF6* peptide from tau]”, the “Binding to Hsp27 ACD by NMR titration (chemical shift changes)” value in [4] was “unable to produce saturable chemical shift changes”; in [4] (listed as VQIVYK peptide), “weak interaction; also recorded: weak/no”.

On to “Hsp27 ACD: α-crystallin domain of human Hsp27 (residues Q80–S176)”, for which the IC50 in series [5] is more than 100 µM. Besides, in [6], the “Effect on aggregation of 0N4R tau (ThT fluorescence)” value (“Effect on aggregation of 0N4R tau” below) is “no effect”. Further, the “Effect on aggregation of K18 tau (ThT fluorescence)” value (shortened to “Effect on aggregation of K18 tau”) in series [7] is given as “no effect”. Further, the “Binding to 15N K18 tau by NMR (peak broadening / CSPs)” value (“Binding … (peak broadening / CSPs)” below) in series [8] is “weak and unsaturable”.

Regarding “GPG: Hsp27 with isoleucine and valine of the IPV mutated to glycine”, the TM in series [9] (setting [12]) is 66.8 ± 0.3 °C. Also, the “Binding … (peak broadening / CSPs)” value in series [8] was “bound to K18”.

For the substance “Hsp27 X: WT Hsp27 cross-linked with gluteraldehyde”, in [6], the “Effect on aggregation of 0N4R tau” value is “severely compromised”. For the same substance, the “Effect on aggregation of K18 tau” value in [7] is “severely compromised”.

On to “ΔNTD: Hsp27 with NTD deleted, residues 80–205”, for which, in series [6], the “Effect on aggregation of 0N4R tau” value is recorded as “ablated Hsp27’s ability to delay tau aggregation”. The “Effect on aggregation of K18 tau” value in series [7] is given as “ablated Hsp27’s ability to delay tau aggregation”.

As for EITIPVTFE [Hsp27 IPV], the “N (binding stoichiometry)” value in [10] worked out at 0.90. In series [10] (peptide (1 mM) titrated into Hsp27 ACD (100 µM), SEC buffer (50 mM sodium phosphate, 100 mM NaCl), mean ± SEM, minimum of three independent experiments, ND = no detectable binding), this substance yielded a dissociation constant Kd of more than 25 µM.

For WT: full-length human Hsp27, in series [6], the “Effect on aggregation of 0N4R tau” value is reported as “prevents aggregation”. Besides, the TM turned out to be 73.1 ± 1.1 °C in [9] (setting [12]) and 72.2 ± 1.0 °C in [9] (Supplementary Figure 8A). Moreover, in series [7], the “Effect on aggregation of K18 tau” value is reported as “prevents aggregation”. Moreover, the “Binding … (peak broadening / CSPs)” value in series [8] was “does not”; in series [8] (listed as full-length Hsp27), “no broadening or CSPs”.

For “3D: pseudo-phosphorylation mutant; S15, S78 and S82 replaced with aspartate”, the “Effect on aggregation of 0N4R tau” value in series [6] is listed as “retains the ability to prevent tau aggregation”. The TM in series [9] (Supplementary Figure 8A) worked out at 72.2 ± 0.85 °C. Besides, the “Binding … (peak broadening / CSPs)” value in series [8] was “binds to K18’s aggregation motifs”.

For the substance L157A ACD: Hsp27 ACD mutant L157A, in series [11], the BAG3 binding entry was “deficient in BAG3 binding”.

As to EIAIPVTHE [T180A], the “N (binding stoichiometry)” value in series [10] is given as 0.65.

For orientation: Kd means the concentration at which binding is half-saturated. A higher Kd goes with a looser complex. One may read the IC50 as the midpoint of a concentration-inhibition curve.
